In the supplement of paper PMC10307832:

How the values were obtained:
Assay in all cases: relative viability (nuclei count vs DMSO), 5 days (fraction); higher = more cells survive
[1] = tested on: NCI-H1975
Summary of the method: (§1)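 Lung cancer cell lines, seeded in 1536-well plates, were treated the following day by pin tool with a single drug or with five library-drug doses (not always all listed) in √10 steps on top of a fixed anchor-drug dose. Cells were fixed and nuclei stained in one step after 5 days, and nuclei were counted. Relative viability is the nuclei count for treated wells divided by that for vehicle wells, reported as medians of duplicate plates.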

[2] = tested on: NCI-H358
Summary of the method: as §1

[3] = tested on: NCI-H2342
Summary of the method: as §1

[4] = tested on: HCC-15
Summary of the method: as §1

[5] = tested on: NCI-H647
Summary of the method: as §1

[6] = tested on: HOP-62
Summary of the method: as §1

[7] = tested on: NCI-H2126
Summary of the method: as §1

[8] = tested on: RERF-LC-KJ
Summary of the method: as §1

[9] = tested on: A-427
Summary of the method: as §1

[10] = tested on: NCI-H1915
Summary of the method: as §1

[11] = tested on: HCC-78
Summary of the method: as §1

[12] = tested on: NCI-H2347
Summary of the method: as §1

[13] = tested on: LC-2-ad
Summary of the method: as §1

[14] = tested on: NCI-H1734
Summary of the method: as §1

[15] = tested on: NCI-H522
Summary of the method: as §1

[16] = tested on: LXF-289
Summary of the method: as §1

[17] = tested on: NCI-H1792
Summary of the method: as §1

[18] = tested on: NCI-H1755
Summary of the method: as §1

[19] = tested on: PC-3 [JPC-3]
Summary of the method: as §1

Structure (SMILES): COc1nc(C)cnc1NS(=O)(=O)c1cccnc1-c1ccc(-c2nnco2)cc1 [Zibotentan] + NC(=O)Nc1cc(-c2cccc(F)c2)sc1C(=O)N[C@H]1CCCNC1 [AZD7762] (partner 0.2 µM)
- relative viability ([1]; first compound 0.08 µM): 0.767
- relative viability ([1]; first compound 0.253 µM): 0.626
- relative viability ([1]; first compound 0.8 µM): 0.728
- relative viability ([1]; first compound 2.53 µM): 0.659
- relative viability ([2]; first compound 0.08 µM): 0.48
- relative viability ([2]; first compound 0.253 µM): 0.405
- relative viability ([2]; first compound 0.8 µM): 0.383
- relative viability ([2]; first compound 2.53 µM): 0.667
- relative viability ([3]; first compound 0.08 µM): 0.556
- relative viability ([3]; first compound 0.253 µM): 0.507
- relative viability ([3]; first compound 0.8 µM): 0.439
- relative viability ([3]; first compound 2.53 µM): 0.517
- relative viability ([4]; first compound 0.08 µM): 1.3
- relative viability ([4]; first compound 0.253 µM): 1.28
- relative viability ([4]; first compound 0.8 µM): 1.18
- relative viability ([4]; first compound 2.53 µM): 1.26
- relative viability ([5]; first compound 0.08 µM): 0.353
- relative viability ([5]; first compound 0.253 µM): 0.302
- relative viability ([5]; first compound 0.8 µM): 0.384
- relative viability ([5]; first compound 2.53 µM): 0.676
- relative viability ([6]; first compound 0.08 µM): 0.593
- relative viability ([6]; first compound 0.253 µM): 0.63
- relative viability ([6]; first compound 0.8 µM): 0.479
- relative viability ([6]; first compound 2.53 µM): 0.615
- relative viability ([7]; first compound 0.08 µM): 0.986
- relative viability ([7]; first compound 0.253 µM): 0.987
- relative viability ([7]; first compound 0.8 µM): 0.915
- relative viability ([7]; first compound 2.53 µM): 1.04
- relative viability ([8]; first compound 0.08 µM): 1.16
- relative viability ([8]; first compound 0.253 µM): 0.938
- relative viability ([8]; first compound 0.8 µM): 0.841
- relative viability ([8]; first compound 2.53 µM): 0.909
- relative viability ([9]; first compound 0.08 µM): 0.905
- relative viability ([9]; first compound 0.253 µM): 0.666
- relative viability ([9]; first compound 0.8 µM): 0.655
- relative viability ([9]; first compound 2.53 µM): 0.834
- relative viability ([10]; first compound 0.08 µM): 0.836
- relative viability ([10]; first compound 0.253 µM): 0.649
- relative viability ([10]; first compound 0.8 µM): 0.597
- relative viability ([10]; first compound 2.53 µM): 0.683
- relative viability ([11]; first compound 0.08 µM): 0.712
- relative viability ([11]; first compound 0.253 µM): 0.475
- relative viability ([11]; first compound 0.8 µM): 0.664
- relative viability ([11]; first compound 2.53 µM): 0.474
- relative viability ([12]; first compound 0.08 µM): 0.733
- relative viability ([12]; first compound 0.253 µM): 0.723
- relative viability ([12]; first compound 0.8 µM): 0.742
- relative viability ([12]; first compound 2.53 µM): 0.945
- relative viability ([13]; first compound 0.08 µM): 0.785
- relative viability ([13]; first compound 0.253 µM): 0.781
- relative viability ([13]; first compound 0.8 µM): 0.791
- relative viability ([13]; first compound 2.53 µM): 0.905
- relative viability ([14]; first compound 0.08 µM): 0.629
- relative viability ([14]; first compound 0.253 µM): 0.521
- relative viability ([14]; first compound 0.8 µM): 0.499
- relative viability ([14]; first compound 2.53 µM): 0.55
- relative viability ([15]; first compound 0.08 µM): 0.835
- relative viability ([15]; first compound 0.253 µM): 0.862
- relative viability ([15]; first compound 0.8 µM): 0.773
- relative viability ([15]; first compound 2.53 µM): 0.856
- relative viability ([16]; first compound 0.08 µM): 1.07
- relative viability ([16]; first compound 0.253 µM): 1.05
- relative viability ([16]; first compound 0.8 µM): 1.06
- relative viability ([16]; first compound 2.53 µM): 1.08
- relative viability ([17]; first compound 0.08 µM): 0.899
- relative viability ([17]; first compound 0.253 µM): 0.604
- relative viability ([17]; first compound 0.8 µM): 0.373
- relative viability ([17]; first compound 2.53 µM): 0.822
- relative viability ([18]; first compound 0.08 µM): 0.452
- relative viability ([18]; first compound 0.253 µM): 0.464
- relative viability ([18]; first compound 0.8 µM): 0.387
- relative viability ([18]; first compound 2.53 µM): 0.471
- relative viability ([19]; first compound 0.08 µM): 0.711
- relative viability ([19]; first compound 0.253 µM): 0.654
- relative viability ([19]; first compound 0.8 µM): 0.733
- relative viability ([19]; first compound 2.53 µM): 0.861

Structure (SMILES): O=c1cc(-c2cccc3c2Sc2ccccc2S3)oc(N2CCOCC2)c1 + NC(=O)Nc1cc(-c2cccc(F)c2)sc1C(=O)N[C@H]1CCCNC1 [AZD7762] (partner 0.2 µM)
- relative viability ([1]; first compound 0.08 µM): 0.601
- relative viability ([1]; first compound 0.253 µM): 0.733
- relative viability ([1]; first compound 0.8 µM): 0.502
- relative viability ([1]; first compound 2.53 µM): 0.631
- relative viability ([1]; first compound 8 µM): 0.678
- relative viability ([2]; first compound 0.08 µM): 0.456
- relative viability ([2]; first compound 0.253 µM): 0.581
- relative viability ([2]; first compound 0.8 µM): 0.523
- relative viability ([2]; first compound 2.53 µM): 0.501
- relative viability ([2]; first compound 8 µM): 0.534
- relative viability ([3]; first compound 0.08 µM): 0.415
- relative viability ([3]; first compound 0.253 µM): 0.466
- relative viability ([3]; first compound 0.8 µM): 0.545
- relative viability ([3]; first compound 2.53 µM): 0.529
- relative viability ([3]; first compound 8 µM): 0.541
- relative viability ([4]; first compound 0.08 µM): 1.22
- relative viability ([4]; first compound 0.253 µM): 1.51
- relative viability ([4]; first compound 0.8 µM): 1.18
- relative viability ([4]; first compound 2.53 µM): 1.18
- relative viability ([4]; first compound 8 µM): 1.28
- relative viability ([5]; first compound 0.08 µM): 0.545
- relative viability ([5]; first compound 0.253 µM): 0.422
- relative viability ([5]; first compound 0.8 µM): 0.456
- relative viability ([5]; first compound 2.53 µM): 0.197
- relative viability ([5]; first compound 8 µM): 0.49
- relative viability ([6]; first compound 0.08 µM): 0.477
- relative viability ([6]; first compound 0.253 µM): 0.61
- relative viability ([6]; first compound 0.8 µM): 0.869
- relative viability ([6]; first compound 2.53 µM): 0.493
- relative viability ([6]; first compound 8 µM): 0.944
- relative viability ([7]; first compound 0.08 µM): 1.02
- relative viability ([7]; first compound 0.253 µM): 1.16
- relative viability ([7]; first compound 0.8 µM): 1.04
- relative viability ([7]; first compound 2.53 µM): 1.03
- relative viability ([7]; first compound 8 µM): 1.04
- relative viability ([8]; first compound 0.08 µM): 0.913
- relative viability ([8]; first compound 0.253 µM): 1.05
- relative viability ([8]; first compound 0.8 µM): 0.846
- relative viability ([8]; first compound 2.53 µM): 0.977
- relative viability ([8]; first compound 8 µM): 1.02
- relative viability ([9]; first compound 0.08 µM): 0.715
- relative viability ([9]; first compound 0.253 µM): 0.842
- relative viability ([9]; first compound 0.8 µM): 0.791
- relative viability ([9]; first compound 2.53 µM): 0.41
- relative viability ([9]; first compound 8 µM): 0.616
- relative viability ([10]; first compound 0.08 µM): 0.716
- relative viability ([10]; first compound 0.253 µM): 0.761
- relative viability ([10]; first compound 0.8 µM): 0.795
- relative viability ([10]; first compound 2.53 µM): 0.681
- relative viability ([10]; first compound 8 µM): 0.716
- relative viability ([11]; first compound 0.08 µM): 0.624
- relative viability ([11]; first compound 0.253 µM): 0.643
- relative viability ([11]; first compound 0.8 µM): 0.472
- relative viability ([11]; first compound 2.53 µM): 0.614
- relative viability ([11]; first compound 8 µM): 0.655
- relative viability ([12]; first compound 0.08 µM): 0.738
- relative viability ([12]; first compound 0.253 µM): 0.798
- relative viability ([12]; first compound 0.8 µM): 0.799
- relative viability ([12]; first compound 2.53 µM): 0.749
- relative viability ([12]; first compound 8 µM): 0.701
- relative viability ([13]; first compound 0.08 µM): 0.805
- relative viability ([13]; first compound 0.253 µM): 0.944
- relative viability ([13]; first compound 0.8 µM): 0.853
- relative viability ([13]; first compound 2.53 µM): 0.741
- relative viability ([13]; first compound 8 µM): 0.797
- relative viability ([14]; first compound 0.08 µM): 0.512
- relative viability ([14]; first compound 0.253 µM): 0.541
- relative viability ([14]; first compound 0.8 µM): 0.581
- relative viability ([14]; first compound 8 µM): 0.63
- relative viability ([15]; first compound 0.08 µM): 0.821
- relative viability ([15]; first compound 0.253 µM): 0.926
- relative viability ([15]; first compound 0.8 µM): 0.864
- relative viability ([15]; first compound 2.53 µM): 0.654
- relative viability ([15]; first compound 8 µM): 0.813
- relative viability ([16]; first compound 0.08 µM): 1.11
- relative viability ([16]; first compound 0.253 µM): 1.18
- relative viability ([16]; first compound 0.8 µM): 1.15
- relative viability ([16]; first compound 2.53 µM): 1.09
- relative viability ([16]; first compound 8 µM): 1.12
- relative viability ([17]; first compound 0.08 µM): 0.541
- relative viability ([17]; first compound 0.253 µM): 0.632
- relative viability ([17]; first compound 0.8 µM): 0.549
- relative viability ([17]; first compound 2.53 µM): 0.55
- relative viability ([17]; first compound 8 µM): 0.583
- relative viability ([18]; first compound 0.08 µM): 0.535
- relative viability ([18]; first compound 0.253 µM): 0.453
- relative viability ([18]; first compound 0.8 µM): 0.439
- relative viability ([18]; first compound 2.53 µM): 0.566
- relative viability ([18]; first compound 8 µM): 0.418
- relative viability ([19]; first compound 0.08 µM): 0.721
- relative viability ([19]; first compound 0.253 µM): 0.745
- relative viability ([19]; first compound 0.8 µM): 0.758
- relative viability ([19]; first compound 2.53 µM): 0.766
- relative viability ([19]; first compound 8 µM): 0.728
